Test results reported in patent US20150141375A1 (priority 2009, published 2015).
“And” between values parts separate entries of the source, which are not always exact repeats. Equal entries are not always repeated. “Also recorded” adds a separate entry of the source.

Columns and labels:
[1] = Safety of CMX001 in HSCT and renal transplant recipients with BK virus viruria (blinded); assay type: in vivo, human; set-up: Mean ALT: unit not given here
Source text: Safety and tolerability of CMX001 in HSCT and renal transplant recipients with BK virus viruria is studied. The safety and tolerability of CMX001 in a post-transplant population is investigated and levels of BKV DNA in urine and plasma over time is monitored.
Twelve HSCT and twelve renal transplant recipients randomized 2:1 (CMX001:Placebo)
BKV viruria >10^4, renal transplant recipients allowed with viremia <10^4
Concomitant valganciclovir/ganciclovir excluded for HSCT recipients only Dosing Schedule: […]

HCMV = HCMV viral DNA accumulation in HFF cells, real time PCR, 7 days; assay type: cell-based
Adenovirus = assay: microbe, parasite or virus in culture; assay type: cell-based; conditions: for EC50: unidentified adenovirus
JC = assay: In vitro potency against dsDNA viruses: JC; assay type: cell-based, JC virus
BKV(Dunlop) = BKV(Dunlop) replication in primary human RPTECs (qPCR, RT-qPCR, western blot, immunofluorescence); assay type: cell-based, BK virus; conditions: for antiviral activity of stored stock compared to freshly prepared drug: tested at 0.31 uM
Procedure: RPTECs were infected with BKV(Dunlop). CMX001 was added before and 2 h postinfection (hpi). Cells and supernatants were harvested 24-72 hpi. BKV replication was examined by TaqMan assays, western blotting, IF staining and viability of RPTECs was examined by WST-1 assay, BrdU incorporation and a TaqMan assay.
Primary human renal proximal tubule epithelial cells (RPTECs), BKV(Dunlop) and all methods as previously described by Bernhoff et al (See Bernhoff et al., Cidofovir inhibits polyomavirus BK replication in human renal tubular cells downstream of viral early gene expression, Am J Transplant 8, 1413-1422 (2008).) Only one exception, quantitative PCR (qPCR) to quantify intracellular or extracellular BKV DNA load was performed with a different primer/probe set also targeting the LTag gene (See Hirsch, et al., J. Prospective study of polyomavirus type BK replication and nephropathy in renal-transplant recipients, N Engl J Med., 347, 488-496 (2002)). Before each experiment, CMX001 was freshly dissolved to 1 mg/ml in methanol/water/ammonium hydroxide (50/50/2). It was further diluted in RPTEC growth medium.
Before each experiment, CMX001 was freshly dissolved to 1 mg/ml in methanol/water/ammonium hydroxide (50/50/2) and further diluted in RPTEC growth medium. About 50% confluent RPTECs were infected with BKV (Dunlop) MOI 1. After 2 h incubation at 37° C., the virus was replaced with fresh medium with or without CMX001 unless otherwise stated.
At 24, 48 and 72 hpi cells were lysed and total RNA extracted using the mirVana PARIS kit (Ambion). RNA samples were treated with DNase turbo (Ambion) to remove residual DNA before the RNA quality was checked by agarose gel electrophoresis and RNA concentration was determined. cDNA was generated from 250 ng RNA per sample using the High Capacity cDNA kit (Applied Biosystems).
To assay extracellular BKV loads, cell culture supernatants were harvested at 24, 48 and 72 hpi and frozen in −70° C. until automatic extraction by a robot (GenoM-48, Qiagen, www.qiagen.com). For intracellular BKV loads, cells were washed, trypsinized and pelleted at 220 g for 10 min, resuspended in G2 buffer from the MagAttract DNA Mini M48 kit (Qiagen) and frozen at −70° C. until extraction with the same robot.
To quantify intracellular or extracellular BKV DNA load, a quantitative PCR (qPCR) with primers and probe targeting the large T-antigen (LT-ag) gene was used. For normalization of intracellular BKV DNA each sample was analyzed in parallel by the qPCR for the gene for aspartoacylase (ACY) to correct for cellular DNA.
Cells were lysed in Cell Disruption buffer (mirVana PARIS kit, Ambion) 24, 48 and 72 hpi and stored at −70° C. until separation with SDS polyacrylamidegel electrophoresis (SDS-PAGE) followed by blotting onto PVDF membrane. Detection of BKV and cellular proteins was performed with polyclonal rabbit antiserum directed against LT-ag (1:2000), VP1 (1:10000), or agno (1:10000) (1, 27) and a monoclonal mouse antibody directed against GAPDH (Ab8245; 1:5000, Abcam, www.abcam.com) followed by anti-rabbit and anti-mouse infrared dye-labeled secondary antibodies (IR Dye 800, Rockland, www.rockland-inc.com and Alexa Fluor 680, Invitrogen, www.invitrogen.com) both 1:5000 before detection with Licor Odyssey Infrared detection system.
Cells were washed in PBS, methanol fixed, blocked with 3% goat-serum in PBS for 30 min, followed by subsequently incubation with primary (37° C.) and secondary (r.t.) antibodies for 30 min. Primary antibodies were monoclonal anti-SV40 LT-ag antibody (Ab-2 Pab416; 1:100, Chemicon, www.chemicon.com) and polyclonal rabbit antiserum directed against agno or VP1 (both 1:1000). The secondary antibodies were anti-mouse conjugated with AlexaFluor 568 and anti-rabbit conjugated with AlexaFluor 488 (1:500; Molecular Probes, www.invitrogen.com). Nuclei were labeled with DRAQ5™ (Biostatus, www.biostatus.com). […]

[2] = renal transplant subjects, Day 0
[3] = renal transplant subjects, Day 7
[4] = renal transplant subjects, Day 14
[5] = renal transplant subjects, Day 21
[6] = renal transplant subjects, Day 28
[7] = stem cell transplant subjects, Day 0
[8] = stem cell transplant subjects, Day 7
[9] = stem cell transplant subjects, Day 14
[10] = stem cell transplant subjects, Day 21
[11] = stem cell transplant subjects, Day 28

## CCCCCCCCCCCCCCCCOCCCOP(=O)(O)CO[C@H](CO)Cn1ccc(N)nc1=O [CMX001, Hexadecyloxypropyl-cidofovir]
[1]; renal transplant subjects, 40 mg/wk×5, Day 0
  Mean Serum creatinine: 1.3 mg/dL
[1]; [2]
  Mean ALT: 19.3
  Mean absolute Neutrophil count: 3.16 1000 per cu mm
[1]; [3]
  Mean ALT: 22.4
  Mean Serum creatinine: 1.3 mg/dL
  Mean absolute Neutrophil count: 4.88 1000 per cu mm
[1]; [4]
  Mean ALT: 21.4
  Mean Serum creatinine: 1.3 mg/dL
  Mean absolute Neutrophil count: 4.59 1000 per cu mm
[1]; [5]
  Mean ALT: 19.6
  Mean Serum creatinine: 1.4 mg/dL
  Mean absolute Neutrophil count: 3.46 1000 per cu mm
[1]; [6]
  Mean ALT: 18.2
  Mean Serum creatinine: 1.4 mg/dL
  Mean absolute Neutrophil count: 4.42 1000 per cu mm
[1]; stem cell transplant subjects, 40 mg/wk×5, Day 0
  Mean Serum creatinine: 0.93 mg/dL
[1]; [7]
  Mean ALT: 32.7
  Mean absolute Neutrophil count: 4.40 1000 per cu mm
[1]; [8]
  Mean ALT: 17
  Mean Serum creatinine: 1.0 mg/dL
  Mean absolute Neutrophil count: 4.40 1000 per cu mm
[1]; [9]
  Mean ALT: 17.5
  Mean Serum creatinine: 0.9 mg/dL
  Mean absolute Neutrophil count: 3.55 1000 per cu mm
[1]; [10]
  Mean ALT: 21.0
  Mean Serum creatinine: 0.9 mg/dL
  Mean absolute Neutrophil count: 3.50 1000 per cu mm
[1]; [11]
  Mean ALT: 20.0
  Mean Serum creatinine: 1.2 mg/dL
  Mean absolute Neutrophil count: 3.15 1000 per cu mm
HCMV
  concentration reducing the quantity of viral DNA by 10-fold: less than 1 nanomolar
  reduction of accumulation of viral DNA: at least three orders of magnitude
HCMV; CMX001 10 nanomolar
  fold reduction of viral DNA: 1000 fold
HCMV; CMX001 above 10 nM
  amplification of viral DNA: essentially eliminated the amplification of viral DNA
Adenovirus; AdV 31
  fold more activity compared to cidofovir: 5 fold
  EC50: 280 nM
Adenovirus; majority of adenovirus serotypes
  EC50: < 50 nM
JC; CMX001 versus cidofovir EC50
  Enhanced Activity: 19
JC; JC polyomavirus
  EC50: 20 nM
BKV(Dunlop); 10 μM CMX001, 72 hpi
  BKV-infected cells, immunofluorescence: no BKV-infected cell was observed
BKV(Dunlop); Betapolyomavirus hominis, RPTEC, RPTECs, 72 h p.i., viral input subtracted, read-out: IC90, extracellular BKV load
  IC90: 310 nM
BKV(Dunlop); CMX001 0.31 μM
  reduction of late protein expression: about 70%
BKV(Dunlop); CMX001 0.31 μM for 24 h
  reduction of BKV load at 96 hpi: approximately 90%
BKV(Dunlop); CMX001 0.31 μM, 24 hpi
  effect on early gene (LT-ag) expression: no effect; also recorded: No difference
BKV(Dunlop); CMX001 0.31 μM, 48 and 72 hpi
  reduction of late gene expression: 70-90%
BKV(Dunlop); CMX001 0.31 μM, 48 hpi
  reduction of BKV DNA replication (intracellular BKV load): 94% and 90%
  reduction of LT-ag mRNA: 33%
  reduction of agno, western blotting: 97%
  reduction of late mRNA levels: 93%
BKV(Dunlop); CMX001 0.31 μM, 72 hpi
  reduction of BKV DNA replication (intracellular BKV load): 63% and 91%
  reduction of LT-ag mRNA: 64%
  reduction of agno, western blotting: 96%
  reduction of late mRNA levels: 82%
BKV(Dunlop); CMX001 0.31 μM, 48 h p.i.
  decrease of VP1, western blotting: 86% and 85%
  reduction of LTag staining: 33%
BKV(Dunlop); CMX001 0.31 μM, 72 h p.i.
  decrease of VP1, western blotting: 63% and 96%
  reduction of LTag staining: 30%
BKV(Dunlop); CMX001 0.31 uM, immunofluorescence 72 h p.i.
  decrease in BKV agnoprotein expressing cells: approximately 60%
BKV(Dunlop); CMX001 0.31 μM, CDV 40 μg/mL
  exposure time for IC-90 of BKV progeny loads at 96 hpi: 24 h
BKV(Dunlop); pre-treatment 23-24 h until one hour before infection, BKV load 72 h p.i.
  reduction of viral load by pre-treatment: about 50%
BKV(Dunlop); pre-treatment 4 hours, ending 20 hours before infection
  effect of pre-treatment on BKV load: hardly any effect; also recorded: did not inhibit BKV replication
BKV(Dunlop); stock 1 mg/ml one week at 4° C.
  antiviral activity of stored stock compared to freshly prepared drug: less than 60%
BKV(Dunlop); stock 1 mg/ml one week at −20° C.
  antiviral activity of stored stock compared to freshly prepared drug: approximately 90%
